Measurements published in US10287252B2, “Inhibitors of tryptophan-2,3-dioxygenase or indoleamine-2,3-dioxygenase” (IOmet Pharma Ltd., priority 2014, dated 2019).

Assays:
TDO [1] = biological target: T1, TDO (Homo sapiens, UniProt P48775); test: A172 Kynurenine cell based assay; set-up: This assay utilised cancer cells which expressed either TDO or IDO; endogenous in cells; host or cells: A172 (human glioblastoma); conditions: A172 (human glioblastoma) cells, 500 μM L-tryptophan, 48 hours, kynurenine by Erhlich's reagent
T1 sequence (P48775 whole entry): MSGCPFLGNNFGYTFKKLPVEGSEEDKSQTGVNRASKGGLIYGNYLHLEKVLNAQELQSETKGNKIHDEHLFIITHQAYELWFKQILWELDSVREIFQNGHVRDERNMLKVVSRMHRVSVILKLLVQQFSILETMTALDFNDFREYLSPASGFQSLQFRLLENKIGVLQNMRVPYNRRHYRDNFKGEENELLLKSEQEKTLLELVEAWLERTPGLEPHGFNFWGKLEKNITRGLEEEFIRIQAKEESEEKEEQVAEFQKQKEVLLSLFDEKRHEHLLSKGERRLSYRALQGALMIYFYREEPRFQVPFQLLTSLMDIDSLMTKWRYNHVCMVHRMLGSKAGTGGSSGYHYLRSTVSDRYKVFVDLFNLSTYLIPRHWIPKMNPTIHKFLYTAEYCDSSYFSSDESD
Experimental: (§1) Exemplary compounds of the invention were prepared, and tested to determine their effect as TDO and/or IDO inhibitors. Two different assays were employed: 1. a cell-based assay for detecting the effect of test compounds on kynurenine production in two different cancer cell types. This assay utilised cancer cells which expressed either TDO or IDO and as such was used as a means of testing compound activity at these two enzymes in a cell-based context. 2. a TDO and IDO biochemical coupled assay which utilised recombinantly produced and purified TDO and IDO enzymes in combination with the enzyme formamidase. This coupled enzyme system allowed conversion of N-formylkynurenine produced by TDO or IDO activity to kynurenine which was then quantified by fluorescence following addition of Erhlich's Reagent The protocols for these are set out below.
(§2) Cell Based Assay for Detection of Kynurenine Produced by TDO and/or IDO
(§3) A172 (human glioblastoma) and SKOV3 (human ovarian adenocarcinoma) cells were seeded in a 96 well plate at 30,000 or 40,000 cells per well respectively in phenol red-free RPMI supplemented with 10% FCS, 2 mM L-glutamine and 500 μM L-tryptophan. IDO expression was induced in the SKOV3 cells by the addition of 500 ng/ml IFN-γ. Cells were incubated at 37° C. with or without the addition of test compound. After 48 hours, the cells were removed by centrifugation and Erhlich's reagent was added to the supernatant. The Erhlich's reagent was incubated for 5 minutes before the absorbance was read at 490 nm.

IDO [2] = biological target: T2, IDO (Homo sapiens, UniProt P14902); test: SKOV3 Kynurenine cell based assay; set-up: IDO expression was induced in the SKOV3 cells by the addition of 500 ng/ml IFN-γ; endogenous in cells; host or cells: SKOV3 (human ovarian adenocarcinoma), induced with IFN-γ; conditions: SKOV3 (human ovarian adenocarcinoma) cells, IDO induced by 500 ng/ml IFN-γ, 500 μM L-tryptophan, 48 hours
T2 sequence (P14902 whole entry): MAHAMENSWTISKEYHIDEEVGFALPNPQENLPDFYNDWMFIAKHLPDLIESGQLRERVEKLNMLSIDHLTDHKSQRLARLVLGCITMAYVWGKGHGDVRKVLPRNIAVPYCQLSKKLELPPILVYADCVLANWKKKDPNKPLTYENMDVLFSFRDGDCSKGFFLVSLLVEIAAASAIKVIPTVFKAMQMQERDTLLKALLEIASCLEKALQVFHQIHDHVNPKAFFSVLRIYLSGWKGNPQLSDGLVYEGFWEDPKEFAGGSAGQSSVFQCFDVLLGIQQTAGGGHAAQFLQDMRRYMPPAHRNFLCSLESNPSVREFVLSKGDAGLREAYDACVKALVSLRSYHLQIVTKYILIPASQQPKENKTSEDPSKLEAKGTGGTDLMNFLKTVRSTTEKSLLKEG
Experimental: as §1, §2, §3

IDO [3] = biological target: T2, IDO; test: hIDO biochemical coupled assay; conditions: 45 μM L-tryptophan, coupled with kynurenine formamidase
Experimental: as §1
(§4) TDO and IDO Biochemical Coupled Assay
(§5) Recombinant human IDO or TDO was incubated in 50 mM KPO4 (pH 7.0), 0.5 mM EGTA, 0.5 mM EDTA, 0.05% Triton™ X100, 20 mM ascorbate, 10 μM methylene blue, 500 U/ml catalase, 50 μg/ml KynB (kynurenine formamidase). TDO assays were carried out in the presence of 330 μM L-tryptophan, while IDO assays had the addition of 45 μM L-tryptophan. After incubation for 17 minutes at room temperature the reactions were stopped by the addition of Erhlich's reagent and incubated at room temperature for 5 minutes before the fluorescence was read (Ex475, Em530).

TDO [4] = biological target: T1, TDO; test: hTDO biochemical coupled assay; conditions: 330 μM L-tryptophan, coupled with kynurenine formamidase
Experimental: as §1, §4, §5

| A172 Kynurenine cell based assay pIC50 (TDO [1]) | SKOV3 Kynurenine cell based assay pIC50 (IDO [2]) | hIDO biochemical assay pIC50 (IDO [3]) | hTDO biochemical assay pIC50 (TDO [4]) | SMILES |
| --- | --- | --- | --- | --- |
| +++ (+++ = pIC50 ≥5.50) | ++ (++ = pIC50 4.50-5.49) | ++ (++ = pIC50 4.50-5.49) | ++ (++ = pIC50 4.50-5.49) | O=S(=O)(Nc1cccc2cnccc12)c1ccccc1 [Compound 9] |
| +/− (+/− = pIC50 <4.00) | + (+ = pIC50 4.00-4.49) | + (+ = pIC50 4.00-4.49) | +/− (+/− = pIC50 <4.00) | O=S(=O)(Nc1cccc2ccncc12)c1ccccc1 [Compound 56] |
| ++ (++ = pIC50 4.50-5.49) | ++ (++ = pIC50 4.50-5.49) | ++ (++ = pIC50 4.50-5.49) | + (+ = pIC50 4.00-4.49) | O=S(=O)(Nc1cccc2cnccc12)c1cccc2ccccc12 [Compound 16] |
| +++ (+++ = pIC50 ≥5.50) | ++ (++ = pIC50 4.50-5.49) | ++ (++ = pIC50 4.50-5.49) | – | COc1cccc(S(=O)(=O)Nc2cccc3cnccc23)c1 [Compound 14] |
| + (+ = pIC50 4.00-4.49) | + (+ = pIC50 4.00-4.49) | – | – | CC(C)Oc1ccc(S(=O)(=O)Nc2cccc3ccncc23)cc1 [Compound 53] |
| +++ (+++ = pIC50 ≥5.50) | + (+ = pIC50 4.00-4.49) | – | – | O=S(=O)(Nc1cccc2cnccc12)c1ccc(F)cc1 [Compound 22] |

Second part, the molecule before the results:

| SMILES | A172 Kynurenine cell based assay pIC50 (TDO [1]) | SKOV3 Kynurenine cell based assay pIC50 (IDO [2]) | hIDO biochemical assay pIC50 (IDO [3]) | hTDO biochemical assay pIC50 (TDO [4]) |
| --- | --- | --- | --- | --- |
| Cc1cc2c(NS(=O)(=O)c3ccccc3)cccc2nn1 [Compound 1] | + (+ = pIC50 4.00-4.49) | + (+ = pIC50 4.00-4.49) | ++ (++ = pIC50 4.50-5.49) | ++ (++ = pIC50 4.50-5.49) |
| O=C(Nc1cccc2cnccc12)C1COc2ccccc2C1 (centres unmarked) [Compound 6] | + (+ = pIC50 4.00-4.49) | ++ (++ = pIC50 4.50-5.49) | +++ (+++ = pIC50 ≥5.50) | +++ (+++ = pIC50 ≥5.50) |
| Cc1cc2c(NC(=O)c3ccc4ncccc4c3)cccc2nn1 [Compound 2] | + (+ = pIC50 4.00-4.49) | + (+ = pIC50 4.00-4.49) | +/− (+/− = pIC50 <4.00) | ++ (++ = pIC50 4.50-5.49) |
| Cc1cc2c(NC(=O)c3ccc4ccccc4n3)cccc2nn1 [Compound 3] | + (+ = pIC50 4.00-4.49) | +/− (+/− = pIC50 <4.00) | +/− (+/− = pIC50 <4.00) | + (+ = pIC50 4.00-4.49) |
| CC(C)CS(=O)(=O)Nc1cccc2cnccc12 [Compound 4] | + (+ = pIC50 4.00-4.49) | +/− (+/− = pIC50 <4.00) | ++ (++ = pIC50 4.50-5.49) | +++ (+++ = pIC50 ≥5.50) |
| CC(C)Oc1ccc(S(=O)(=O)Nc2cc(Cl)cc3cnccc23)cc1 [Compound 58] | +/− (+/− = pIC50 <4.00) | ++ (++ = pIC50 4.50-5.49) | + (+ = pIC50 4.00-4.49) | +/− (+/− = pIC50 <4.00) |
| O=S(=O)(Nc1cc(Cl)cc2cnccc12)c1ccc(Cl)cc1 [Compound 57] | +/− (+/− = pIC50 <4.00) | ++ (++ = pIC50 4.50-5.49) | + (+ = pIC50 4.00-4.49) | +/− (+/− = pIC50 <4.00) |
